Test results as given in BigSolDB 2.1.

CO[C@H]1C[C@@H]2CC[C@@H](C)[C@@](O)(O2)C(=O)C(=O)N2CCCC[C@H]2C(=O)O[C@H]([C@H](C)C[C@@H]2CC[C@@H](O)[C@H](OC)C2)CC(=O)[C@H](C)/C=C(\C)[C@@H](O)[C@@H](OC)C(=O)[C@H](C)C[C@H](C)/C=C/C=C/C=C/1C
solubility (mole fraction)
Conditions | in acetone | in chloroform | in dichloromethane | in ethanol | in methanol
295 K | 0.00316 | 0.00272 | 0.0019 | 0.00137 | 0.00072
300 K | 0.00321 | 0.00289 | 0.00201 | 0.00143 | 0.00088
305 K | 0.00343 | 0.00311 | 0.0022 | 0.00163 | 0.00107
310 K | 0.00388 | 0.00325 | 0.00246 | 0.00184 | 0.00123
315 K | 0.00433 | 0.00346 | 0.00271 | 0.00197 | 0.00143
320 K | 0.0047 | 0.00369 | 0.00279 | 0.0021 | 0.00146
325 K | 0.00487 | 0.00386 | 0.00306 | 0.00237 | 0.00163
330 K | 0.00511 | 0.00413 | 0.00333 | 0.00259 | 0.00171
335 K | 0.00545 | 0.00437 | 0.00351 | 0.00275 | 0.00183
340 K | 0.00627 | 0.00458 | 0.00397 | 0.00291 | 0.00188
345 K | 0.00721 | 0.00495 | 0.00433 | 0.00317 | 0.00205
